Entries after “also recorded” stand apart in the source; their conditions may differ.
Legend:
[1] = system: native TCPase activity in brain MAPs; assay: detyrosination assay with 3H-tyrosine labelled microtubules and isolated brain MAPs; assay type: biochemical, pig; details: for inhibition of TCP activity in the MAPs fraction by peptides (in words): brain-derived MAPs, FIG. 11A; for inhibition of native TCPase activity in brain MAPs (in words): protease inhibitor treatment of brain MAPs, FIG. 5
Description: An assay involving radioactively labelled tyrosine (^3H—Y) was used to quantitatively determine the TCPase activity. Brain tubulin was isolated and purified and radioactively labelled with *Y by recombinant TTL. To do so, recombinant bacterially expressed purified TTL (>90% purity) was put in contact with micrograms of pig brain purified tubulin. The reaction sample was incubated for one hour at 37° C. in presence of radioactively labelled ^3H—Y and ATP. Following incorporation of ^3H—Y to tubulin, a polymerization cycle was performed by adding GTP and incubating for 30 min at 37° C. Next the samples are centrifuged and the obtained pellet was washed twice with PEM buffer. The resulting radioactively labelled MTs were store at −80° C. until further testing. […] After obtaining both purified recombinant TCPase candidate and radioactively labelled MTs, the proteins were put into contact and various amounts of TCPase were presented to MTs. Removal of the radioactive tyrosine by the candidate detyrosinase was measured by quantification of radioactivity in both the soluble and insoluble fraction of the reaction using a liquid scintillator counter.
To further gain insights in the potential protease that could embody the TCPase activity, the isolated MAPs from crude brain extracts were exposed to a selection of specific Cysteine, Aspartic, Metallo and Serine proteinase inhibitors were tested on the extract.
Recombinant bacterially expressed purified TTL (>90% purity) was put in contact with micrograms of pig brain purified tubulin. The reaction sample was incubated for one hour at 37° C. in presence of radioactively labeled ^3H—Y and ATP. Following incorporation of ^3H—Y to tubulin, a polymerization cycle was performed by adding GTP and incubating for 30 min at 37° C. Next, the samples were centrifuged and the obtained pellet was washed twice with PEM buffer. The resulting radioactively labeled MTs were store at −80° C. until further testing. The isolated MAPs from crude brain extracts (as obtained in example 1) were contacted to the radioactively labeled MTs in absence or presence of different peptidic inhibitors or an increasing concentration of peptidic inhibitor. Release of radioactive tyrosine by native TCPase containing brain MAPs was measured by quantification of radioactivity in both the soluble and insoluble fraction of the reaction using a liquid scintillator counter.

[2] = system: C2C12 cells; assay: C2C12 myogenic differentiation, immunoblot of tubulin detyrosination and acetylation; assay type: cell-based, mouse; details: C2C12 myogenic differentiation time-course, FIG. 12
Description: C2C12 cells is an immortal cell line of mouse skeletal myoblasts originally derived from satellite cells from the thigh muscle cells. C2C12 cells were routinely grown at 37° C. in a CO2 incubator. Myogenic differentiation is initiated upon reaching confluence by switching the cells to medium containing 2% horse serum. Cells were collected at start of the myogenic differentiation and every two days over a period of 6 days for molecular analysis.
To further study the use of a TCPase inhibitor, C2C12 cells were treated with or without EEY peptide (FIG. 12). The protein expression of Myosin was monitored by western blotting as control for muscle differentiation. Vinculin acts as loading control. Acetylation and detyrosination of the microtubules was assessed. Whereas acetylation increases during differentiation (Ac-Tubulin) no difference in the status could be observed in the treated cells.

| Compound | inhibition of TCP activity in the MAPs fraction by peptides (in words) [1] | acetylation of the microtubules (Ac-Tubulin) [2] | tubulin detyrosination levels (Δ1-tubulin) [2] | inhibition of native TCPase activity in brain MAPs (in words) [1] |
| --- | --- | --- | --- | --- |
| EDY: three amino acid peptide EDY inspired by the C-terminal sequence of tubulin | partially blocked |  |  |  |
| EEY: tripeptide EEY inspired by the C-terminal sequence of alpha-tubulin, TCP inhibitor | almost fully inhibited | no difference | clearly inhibited detyrosination; also recorded: decrease |  |
| CC(C)C[C@H](NC(=O)[C@H]1O[C@@H]1C(=O)O)C(=O)NCCCCN=C(N)N [E64, reference compound] |  |  |  | complete inhibition |
| NC(=O)CI [Iodoacetamide, reference compound] |  |  |  | complete inhibition |

From patent US12410237B2, “Methods for purifying proteins having a tubulin carboxypeptidase activity and peptidic based inhibitors thereof” (CENTRE NATIONAL DE LA RECHERCHE SCIENTIFIQUE, priority 2017, dated 2025)
